For test [1], the system named is Agrobacterium tumefaciens. In words: Antimicrobial activity against Agrobacterium tumefaciens assessed as growth inhibition after 24 hrs by two-fold serial dilution technique. Type of test: functional.
In test [2] the test system is Staphylococcus aureus. In words: Antimicrobial activity against penicillin-resistant Staphylococcus aureus assessed as growth inhibition after 24 hrs by two-fold serial dilution technique. The class given is functional.
Test [3] concerns Cryptococcus neoformans. In words: Antimicrobial activity against Cryptococcus neoformans assessed as growth inhibition after 24 hrs by two-fold serial dilution technique. Type of test: functional.
For test [4], the system named is Salmonella typhi. In words: Antimicrobial activity against Salmonella typhi assessed as growth inhibition after 24 hrs by two-fold serial dilution technique. Type of test: functional, organism-based. The note with it: Salmonella enterica subsp. enterica serovar Typhi.
Test [5] deals with Trichophyton mentagrophytes. Kind of test: Antimicrobial activity against Trichophyton mentagrophytes assessed as growth inhibition after 24 hrs by two-fold serial dilution technique. The class given is functional.
In test [6] the test system is Microsporum canis. Kind of test: Antimicrobial activity against Microsporum canis assessed as growth inhibition after 24 hrs by two-fold serial dilution technique. The class given is functional.
Test [7] relates to Bacillus subtilis. Kind of test: Antimicrobial activity against Bacillus subtilis assessed as growth inhibition after 24 hrs by two-fold serial dilution technique. Type of test: functional, organism-based.
The test system of test [8] is Escherichia coli. Kind of test: Antimicrobial activity against Escherichia coli assessed as growth inhibition after 24 hrs by two-fold serial dilution technique. Type of test: functional, organism-based.
Test [9] relates to Aspergillus niger. In words: Antimicrobial activity against Aspergillus niger assessed as growth inhibition after 24 hrs by two-fold serial dilution technique. The class given is functional.
The test system of test [10] is Candida albicans. In words: Antimicrobial activity against Candida albicans assessed as growth inhibition after 24 hrs by two-fold serial dilution technique. Type of test: functional.
The subject of test [11] is Rodentolepis nana. In words: Cestodicidal activity against Hymenolepis nana infected in po dosed rat administered as single dose. Type of test: functional.

In brackets after ≈: the same amount, converted by molar mass. Activity calls are given as the source filed them. The calls are words filed in the database; no cut-off is given here.

Regarding `O=C(Nc1ccc(Br)cc1)c1cc(Br)cc(Br)c1O` [TRIBROMSALAN], the MIC (as a rule, the lowest concentration that inhibits growth of the organism) in [1] was 12.5 µg/mL (≈ 27.8 µM); in [2] it was 0.0975 µg/mL (≈ 0.217 µM); in test [3], 6.25 µg/mL (≈ 13.9 µM); in test [5], 1.56 µg/mL (≈ 3.47 µM); in test [6] it was 0.78 µg/mL (≈ 1.73 µM); in test [9] it was 12.5 µg/mL (≈ 27.8 µM). Besides, the “growth inhibition (GI)” value in test [4], in test [7] and in test [8] was “inactive” throughout.
Take `O=C(Nc1ccc(N2CCC(O)(c3ccccc3)CC2)c([N+](=O)[O-])c1)c1cc(Cl)ccc1O`: the MIC in [1] was 25 µg/mL (≈ 53.4 µM); in test [2], 0.39 µg/mL (≈ 0.833 µM); in [3], 3.12 µg/mL (≈ 6.68 µM); in [5] it was 6.25 µg/mL (≈ 13.4 µM); in [6], 6.25 µg/mL (≈ 13.4 µM); in [9] it was over 100 µg/mL. The “growth inhibition (GI)” value in test [4], in test [10], in test [7] and in test [8] was “inactive” throughout. In [11], this molecule showed an MED98 of 250 mg/kg.
In the case of `O=C(Nc1ccc(N2CCN(c3ccccc3)CC2)c([N+](=O)[O-])c1)c1cc(Cl)ccc1O`, the MIC in test [1] is over 100 µg/mL; in [2], 0.39 µg/mL (≈ 0.861 µM); in test [3], 12.5 µg/mL (≈ 27.6 µM); in test [5], 3.12 µg/mL (≈ 6.9 µM); in test [6], 1.56 µg/mL (≈ 3.44 µM); in test [9], 25 µg/mL (≈ 55.2 µM). In addition, the “growth inhibition (GI)” value in [4], in test [10], in test [7] and in test [8] was “inactive” throughout. This molecule also showed an MED98 in [11] of 50 mg/kg.
Turning to `O=C(Nc1ccc(Oc2ccccc2)c([N+](=O)[O-])c1)c1cc(Cl)ccc1O`, the minimal inhibitory concentration (MIC) is over 100 µg/mL in test [1]; 0.00609 µg/mL (≈ 0.0158 µM) in test [2]; over 100 µg/mL in test [3]; 1.56 µg/mL (≈ 4.05 µM) in [5]; 0.78 µg/mL (≈ 2.03 µM) in test [6]; 25 µg/mL (≈ 65 µM) in test [9]. Moreover, the “growth inhibition (GI)” value in test [4], in [10], in [7] and in [8] was “inactive” in each case. The MED98 in [11] turned out to be 250 mg/kg.
As to `O=C(Nc1ccc(N2CCC(c3ccccc3)CC2)c([N+](=O)[O-])c1)c1cc(Cl)ccc1O`, the MIC in test [1] is 25 µg/mL (≈ 55.3 µM); in test [2] it was 0.39 µg/mL (≈ 0.863 µM); in test [3], 3.12 µg/mL (≈ 6.92 µM); in test [5], 6.25 µg/mL (≈ 13.8 µM); in test [6] it was 6.25 µg/mL (≈ 13.8 µM); in test [9], over 100 µg/mL. In addition, the “growth inhibition (GI)” value in test [4], in [10], in [7] and in [8] was “inactive” each time. Further, the MED98 in test [11] amounted to 250 mg/kg.
Take `CN1CCN(c2ccc(NC(=O)c3cc(Cl)ccc3O)cc2[N+](=O)[O-])CC1`: the MIC was 25 µg/mL (≈ 64 µM) in [1]; 0.195 µg/mL (≈ 0.499 µM) in test [2]; 25 µg/mL (≈ 64 µM) in test [3]; 0.195 µg/mL (≈ 0.499 µM) in test [5]; 0.39 µg/mL (≈ 0.998 µM) in [6]; 25 µg/mL (≈ 64 µM) in [10]. The minimal inhibitory concentration (MIC) in [9] came to 25 µg/mL (≈ 64 µM). Besides, the “growth inhibition (GI)” value in test [4], in test [7] and in [8] was “inactive” each time. This molecule had an MED98 in [11] of 100 mg/kg.
Regarding `CC1CCCN(c2ccc(NC(=O)c3cc(Cl)ccc3O)cc2[N+](=O)[O-])C1` (stereo unspecified), the minimum inhibitory concentration (MIC) in test [1] is over 100 µg/mL; in [2], 0.39 µg/mL (≈ 1 µM); in test [3], 25 µg/mL (≈ 64.1 µM); in test [5] it was 6.25 µg/mL (≈ 16 µM); in [6], 3.12 µg/mL (≈ 8.02 µM); in test [9] it was over 100 µg/mL. In addition, the “growth inhibition (GI)” value in test [4], in test [10], in test [7] and in [8] was “inactive” each time. In test [11], this molecule displayed an MED98 of 250 mg/kg.
For the molecule `O=C(Nc1ccc([N+](=O)[O-])cc1Cl)c1cc(Cl)ccc1O` [NICLOSAMIDE], the MED98 in test [11] worked out at 50 mg/kg.

(Values after ChEMBL document CHEMBL3272279, “Synthesis of 5-chloro-3'-nitro-4'-substituted salicylanilides, a new series of anthelmintic and antimicrobial agents” (1977).)
